Experimental data reported in publication PMC8794255, “Small molecule inhibitor of Igf2bp1 represses Kras and a pro-oncogenic phenotype in cancer cells” (RNA Biology, 2021).

Assays:
Igf2bp1 RRM12 di-domain = molecular target: T1, Igf2bp1 RRM12 di-domain (Homo sapiens, UniProt Q9NZI8); assay: MST, Igf2bp1 RRM12 di-domain; settings: read-out: KD of binding to RRM12
T1 construct: Human Igf2bp1 di-domains RRM12 (M1-P188) and KH34 (P387-A574); 6xHis (N, cleaved yes); made in house; host or cells: E. coli BL21(DE3)
T1 sequence (Q9NZI8 1-188): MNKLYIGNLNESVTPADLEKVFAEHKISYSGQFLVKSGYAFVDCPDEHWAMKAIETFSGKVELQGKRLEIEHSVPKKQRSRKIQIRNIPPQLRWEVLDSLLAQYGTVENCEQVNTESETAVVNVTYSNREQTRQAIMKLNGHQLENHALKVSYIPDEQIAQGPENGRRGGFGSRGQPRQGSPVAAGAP
Procedure: (§1) Recombinant full-length Igf2bp1 protein was labelled with RED-tris-NTA dye using a Monolith NT His-Tag Labelling Kit (NanoTemper) while RRM12, KH12 and KH34 di-domain peptides were labelled using the Protein Labelling Kit RED NHS 2nd generation (NanoTemper). Labelled proteins were spun at 15,000 g for 5 min to eliminate aggregates. All samples were 2X labelled protein mix of Igf2bp1 (200 nM) in PBST and were combined (1:1) with serial dilutions of compound or Kras6 RNA in binding buffer (10mMTris pH = 7.5, 100 mM NaCl, 0.1 mM EDTA, 0.06% IPEGAL, 0.02 μg/μL tRNA, 2 mM DTT, 0.1 μg/μL heparin) in final volume of 20 μL, room temperature for 15 min. Samples were then loaded into standard capillaries (NanoTemper) and read in the Monolith NT.115 scanner (NanoTemper) using the red filter with reading conditions of 95% LED power and 40% MST power, 5 sec fluorescence before, 30 sec MST on, 5 sec fluorescence after and 25 sec delay between samples. Results were analysed using the MO Control software (NanoTemper) for curve fitting to KD.
(§2) The open reading frame of Igf2bps were cloned into the pET-21(d) plasmid (Novagen) between the Nco1 and Xho1 sites, as previously described. […]

Igf2bp1 KH12 di-domain = molecular target: T2, Igf2bp1 KH12 di-domain (Homo sapiens, UniProt Q9NZI8); assay: MST, Igf2bp1 KH12 di-domain; format: binding
T2 construct: 6xHis/GST (N, cleaved yes); made in house; host or cells: E. coli BL21(DE3)
T2 sequence (Q9NZI8 194-369): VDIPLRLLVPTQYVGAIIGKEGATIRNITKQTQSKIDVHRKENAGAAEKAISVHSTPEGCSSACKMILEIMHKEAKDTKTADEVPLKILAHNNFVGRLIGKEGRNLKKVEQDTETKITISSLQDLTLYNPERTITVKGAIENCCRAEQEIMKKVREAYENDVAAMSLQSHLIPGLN
Procedure: as §1, §2

H1299 cells [1] = assay: qPCR of Igf2bp1 target RNAs in H1299 cells; format: cell-based, human
Procedure: Cells were grown for 12 hours in 12 well plates prior to incubation with the compound at different concentrations for an additional 12 or 24 hours. Total RNA was then extracted using EZ-RNA total RNA isolation kit (Biological Industries) and cDNA prepared from the RNA using the First Strand cDNA Synthesis kit (Quanta bio). Real time PCR was performed with Fast SYBR Green Master Mix (Thermo Fisher Scientific), and cDNA expression analysed with the Bio-Rad CFX Manager 3.1.

ES2 cells = assay: Wound healing (cell migration) assay, ES2; format: cell-based, human
Procedure: (§3) Cells were seeded in 96 IncuCyte® ImageLock plates (20X10^3 cells per well) for 24 hours, to a near confluency of 95%, before the addition of increasing concentrations of compound. After a further 24 hours, wells were scratched using the IncuCyte® 96-well WoundMaker Tool, and the cells cultured for an additional 48 hours using the IncuCyte® S3 Live-Cell Analysis System (Essen BioScience). The plate was imaged at increments of 120 minutes for a period of 48 hours, and then analysed for relative wound healing.

HEK293 cells = assay: Wound healing (cell migration) assay, HEK293; format: cell-based, human
Procedure: as §3

H1299 cells [2] = assay: Cell proliferation assay (Incucyte), H1299; format: cell-based, human
Procedure: ES2, H1299 and HEK293 cells were seeded in a 96 well plate (5X10^3 cells per well) for 24 hours before adding the compound at increasing concentrations. After an additional 24 hours, the plate was incubated in an IncuCyte® S3 Live-Cell Analysis System (Essen BioScience). The wells were filmed for 72 hours, and then analysed for proliferation rate Using IncuCyte® S3 Live-Cell Analysis System (Essen BioScience)

Kd (Igf2bp1 RRM12 di-domain): 1500 nM | Binding to KH12 (Igf2bp1 KH12 di-domain): no binding was observed
Compound: O=C(c1ccc(Cn2cnnn2)cc1)N1CCCC(Nc2ccc3c(c2)OCO3)C1 (centres unmarked) [compound 7773]
Steady state level of Kras mRNA (H1299 cells [1]; H1299, 20 μM 7773, 12 hours): already reduced | Steady state levels of CD44, Kras, cMyc and SRF RNA (H1299 cells [1]; H1299, 20 μM 7773, 24 hours): all of the RNAs significantly reduced | Levels of control RNAs that are not targets of Igf2bp1 (H1299 cells [1]; H1299, 24 hours): not significantly affected | Wound healing (ES2 cells; ES2, 20 μM): strongly inhibited | Wound healing (ES2 cells; ES2, lowest concentration 5 μM): discernible inhibition | Wound healing (HEK293 cells; HEK293, 20 μM): strongly inhibited | Wound healing (HEK293 cells; HEK293, lowest concentration 5 μM): discernible inhibition | Effect on cell proliferation or cytotoxicity (H1299 cells [2]; H1299, 20 μM 7773): virtually no effect | Cell proliferation (H1299 cells [2]; H1299, up to 20 μM): remarkably unaffected
